In patent EP1202975B1, “SUBSTITUTED POLYCYCLIC ARYL AND HETEROARYL PYRAZINONES USEFUL FOR SELECTIVE INHIBITION OF THE COAGULATION CASCADE” (Pharmacia Corporation, priority 1999, dated 2000):
Where two headings read alike, the source gives them in different places.

Key:
TF-VIIa = biological target: T1, TF-VIIa (Homo sapiens, UniProt P08709); test: TF-VIIa Assay; assay type: biochemical; settings: for IC50: cells given as a plain number (IC50), read-out: IC50 or % Inhibition TF-VIIa (30 µM); for IC50 or % Inhibition TF-VIIa (30 µM): % inhibition at 30 µM
T1 construct: 2nM recombinant human factor VIIa; purchased American Diagnostica, Greenwich CT; host or cells: soluble TF made in house in E. coli
T1 sequence (P08709 213-466 limits assumed): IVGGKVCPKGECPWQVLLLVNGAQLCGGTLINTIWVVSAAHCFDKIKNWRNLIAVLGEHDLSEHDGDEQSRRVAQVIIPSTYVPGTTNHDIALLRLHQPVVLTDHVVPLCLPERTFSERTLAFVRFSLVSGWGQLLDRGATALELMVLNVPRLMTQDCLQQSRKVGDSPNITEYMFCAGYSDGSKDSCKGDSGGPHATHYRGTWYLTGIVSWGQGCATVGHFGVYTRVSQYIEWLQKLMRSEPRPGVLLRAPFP
T1 sequence (P08709 61-212 limits assumed): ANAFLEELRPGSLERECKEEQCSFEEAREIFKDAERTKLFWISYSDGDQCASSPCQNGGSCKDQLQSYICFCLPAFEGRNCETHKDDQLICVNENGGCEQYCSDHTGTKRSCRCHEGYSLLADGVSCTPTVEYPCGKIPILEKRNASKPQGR
T1 sequence (P13726 33-251 partner limits assumed): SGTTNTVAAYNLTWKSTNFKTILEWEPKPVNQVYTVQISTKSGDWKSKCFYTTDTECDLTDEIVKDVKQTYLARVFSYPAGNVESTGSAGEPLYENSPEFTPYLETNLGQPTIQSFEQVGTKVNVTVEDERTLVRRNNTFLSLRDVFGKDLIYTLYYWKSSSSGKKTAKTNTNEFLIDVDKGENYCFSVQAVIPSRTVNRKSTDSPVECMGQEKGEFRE

Human factor Xa = Human factor Xa (Homo sapiens, UniProt P00742); test: Xa Assay; settings: for IC50 or % Inhibition Factor Xa (30 µM): % inhibition at 30 µM
Chain of Human factor Xa (P00742 235-488 limits assumed): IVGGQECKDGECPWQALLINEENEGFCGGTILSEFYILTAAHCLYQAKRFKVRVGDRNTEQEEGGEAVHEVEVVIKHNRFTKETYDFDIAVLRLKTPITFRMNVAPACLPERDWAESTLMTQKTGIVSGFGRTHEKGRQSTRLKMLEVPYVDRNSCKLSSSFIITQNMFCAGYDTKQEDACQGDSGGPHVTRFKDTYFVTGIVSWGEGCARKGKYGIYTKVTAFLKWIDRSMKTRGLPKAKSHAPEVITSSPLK
Chain of Human factor Xa (P00742 41-179 limits assumed): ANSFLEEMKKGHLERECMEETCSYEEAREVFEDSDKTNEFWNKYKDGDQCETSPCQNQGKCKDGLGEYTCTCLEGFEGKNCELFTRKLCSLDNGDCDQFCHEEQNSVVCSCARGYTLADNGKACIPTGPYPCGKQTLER

[1] = read-out: IC50 or % Inhibition Factor Xa (30 µM), cells given as a plain number (IC50)

Compound	IC50 (TF-VIIa)	IC50 (Human factor Xa)	IC50 or % Inhibition Factor Xa (30 µM) (Human factor Xa)	IC50 or % Inhibition TF-VIIa (30 µM) (TF-VIIa)	IC50 (Human factor Xa; [1])
N=C(N)NCCC[C@H](NC(=O)Cn1c(-c2ccccc2)c(Cl)nc(NCCc2ccccc2)c1=O)C(=O)c1nccs1 [Example 3]	0.2 µM	1 µM	–	–	–
N=C(N)NCCC[C@H](NC(=O)Cn1c(CCc2ccccc2)c(Cl)nc(NCCc2ccccc2)c1=O)C(=O)c1nccs1 [Example 5]	7 µM	4 µM	–	–	–
N=C(N)NCCC[C@H](NC(=O)Cn1c(-c2ccccc2)cnc(NCCc2ccccc2)c1=O)C(=O)c1nccs1 [Example 6]	0.1 µM	1 µM	–	–	–
N=C(N)NCCC[C@H](NC(=O)Cn1c(Cc2ccccc2)cnc(NCCc2ccccc2)c1=O)C(=O)c1nccs1 [Example 7]	0.2 µM	3 µM	–	–	–
N=C(N)NCCC[C@H](NC(=O)Cn1c(CCc2ccccc2)cnc(NCCc2ccccc2)c1=O)C(=O)c1nccs1 [Example 8]	3 µM	1 µM	–	–	–
N=C(N)NCCCNC(=O)Cn1c(-c2ccccc2)cnc(NCCc2ccccc2)c1=O [Example 11]	91 µM	> 100 µM	–	–	–
N=C(N)NCCCCNC(=O)Cn1c(-c2ccccc2)cnc(NCCc2ccccc2)c1=O [Example 12]	> 100 µM	> 100 µM	–	–	–
N=C(N)NCCCCCNC(=O)Cn1c(-c2ccccc2)cnc(NCCc2ccccc2)c1=O [Example 13]	> 100 µM	> 100 µM	–	–	–
COc1ccc(-c2cnc(NCCc3ccccc3)c(=O)n2CC(=O)NCCCCNC(=N)N)cc1 [Example 14]	> 100 µM	> 100 µM	–	–	–
N=C(N)NCCCCNC(=O)Cn1c(-c2ccc3c(c2)OCO3)cnc(NCCc2ccccc2)c1=O [Example 16]	> 100 µM	> 100 µM	–	–	–
CC(C)Nc1nc(Cl)c(-c2cccc(C#N)c2)n(CC(=O)NCc2ccc(C(=N)N)cc2)c1=O [Example 17]	0.71 µM	–	41%	–	–
N=C(N)c1ccc(CNC(=O)Cn2c(-c3ccccc3)c(Cl)nc(NCCc3ccncc3)c2=O)cc1 [Example 19]	0.8 µM	–	22%@30	–	–
N=C(N)c1ccc(CNC(=O)Cn2c(-c3ccc(-c4ccccc4)cc3)c(Cl)nc(NCCc3cccnc3)c2=O)cc1 [Example 21]	–	–	21%@30	8%@30	–
N=C(N)c1ccc(CNC(=O)Cn2c(-c3ccc(-c4ccccc4)cc3)c(Cl)nc(NCCc3ccc(Cl)cc3)c2=O)cc1 [Example 22]	–	–	13%@30	0%@30	–
N=C(N)c1ccc(CNC(=O)Cn2c(-c3cccc(Cl)c3)c(Cl)nc(NCc3ccccc3)c2=O)cc1 [Example 23]	1.7 µM	–	38%@30	–	–
N=C(N)NCCCNc1nc(Cl)c(-c2ccccc2)n(CC(=O)NCc2ccc(C(=N)N)cc2)c1=O [Example 47]	0.66 µM	10.6 µM	–	–	–
N=C(N)NCCNc1nc(Cl)c(-c2ccccc2)n(CC(=O)NCc2ccc(C(=N)N)cc2)c1=O [Example 48]	0.57 µM	–	20%	–	–
N=C(N)NCCCCNc1nc(Cl)c(-c2ccccc2)n(CC(=O)NCc2ccc(C(=N)N)cc2)c1=O [Example 49]	0.57 µM	28.9 µM	–	–	–
N=C(N)CCNc1nc(Cl)c(-c2ccccc2)n(CC(=O)NCc2ccc(C(=N)N)cc2)c1=O [Example 50]	0.5 µM	–	39%	–	–
N=C(N)c1ccc(CNC(=O)Cn2c(-c3ccccc3)c(Cl)nc(NCc3ccc(C(=N)N)cc3)c2=O)cc1 [Example 51]	0.65 µM	9.68 µM	–	–	–
N=C(N)c1ccc(CNC(=O)Cn2c(-c3ccccc3)c(Cl)nc(NCc3cccc(C(=N)N)c3)c2=O)cc1 [Example 52]	0.59 µM	24 µM	–	–	–
N#CCCNc1nc(Cl)c(-c2ccccc2)n(CC(=O)NCc2ccc(C(=N)N)cc2)c1=O [Example 53]	0.3 µM	–	7%	–	–
CC(C)Nc1nc(Cl)c(-c2cccc(N)c2)n(CC(=O)NCc2ccc(C(=N)N)s2)c1=O [Example 55]	0.15 µM	–	0%	–	–
CN(C)c1cccc(-c2c(Cl)nc(NCCc3ccccc3)c(=O)n2CC(=O)NCc2ccc(C(=N)N)cc2)c1 [Example 103]	0.3 µM	–	11%@30	–	–
CNc1cccc(-c2c(Cl)nc(NC(C)C)c(=O)n2CC(=O)NCc2ccc(C(=N)N)cc2)c1 [Example 104]	1.2 µM	> 30 µM	–	–	–
N=C(N)c1ccc(CNC(=O)Cn2c(-c3ccccc3)cnc(NC(=O)Nc3ccccc3)c2=O)cc1 [Example 106]	1.11 µM	–	30%	–	–
N=C(N)c1ccc(CNC(=O)Cn2c(-c3ccccc3)cnc(NC(=O)Nc3cccc(N)c3)c2=O)cc1 [Example 107]	0.57 µM	–	35%	–	–

Compound	IC50 (TF-VIIa)	IC50 (Human factor Xa)	IC50 or % Inhibition Factor Xa (30 µM) (Human factor Xa)	IC50 or % Inhibition TF-VIIa (30 µM) (TF-VIIa)	IC50 (Human factor Xa; [1])
N=C(N)c1ccc(CNC(=O)Cn2c(-c3ccccc3)cnc(NC(=O)Nc3cc(Cl)cc(Cl)c3)c2=O)cc1 [Example 108]	4.13 µM	–	20%	–	–
CC(C)NC(=O)Nc1ncc(-c2ccccc2)n(CC(=O)NCc2ccc(C(=N)N)cc2)c1=O [Example 109]	6.17 µM	–	10%	–	–
CC(C)Nc1nc(Cl)c(-c2cc(N)ccc2F)n(CC(=O)NCc2ccc(C(=N)N)cc2F)c1=O [compound 73]	0.03 µM	–	0%	–	–
CC(C)Nc1nc(Cl)c(-c2ccc(Cl)nc2)n(CC(=O)NCc2ccc(C(=N)N)cc2F)c1=O [compound 74]	3.25 µM	–	13%	–	–
CC(C)Nc1nc(Cl)c(-c2cccnc2)n(CC(=O)NCc2ccc(C(=N)N)cc2)c1=O [compound 75]	0.21 µM	–	9%	–	–
N=C(N)c1ccc(CNC(=O)Cn2c(-c3cccc([N+](=O)[O-])c3)c(Cl)nc(NCCc3ccccc3)c2=O)cc1 [compound 77]	2.52 µM	–	–	–	> 30 µM
Cc1ccccc1-c1c(Cl)nc(NCCc2ccccc2)c(=O)n1CC(=O)NCc1ccc(C(=N)N)cc1 [compound 78]	0.43 µM	–	16%@30	–	–
N=C(N)c1ccc(CNC(=O)Cn2c(-c3cccc4ccccc34)c(Cl)nc(NCCc3ccccc3)c2=O)cc1 [compound 80]	1.29 µM	–	29%@30	–	–
Cc1cccc(-c2c(Cl)nc(NCCc3ccccc3)c(=O)n2CC(=O)NCc2ccc(C(=N)N)cc2)c1 [compound 81]	1 µM	–	33%@30	–	–
N=C(N)c1ccc(CNC(=O)Cn2c(-c3ccc4ccccc4c3)c(Cl)nc(NCCc3ccccc3)c2=O)cc1 [compound 82]	20 µM	–	32%@30	–	–
Cc1cccc(-c2cnc(NCCc3ccccc3)c(=O)n2CC(=O)NCc2ccc(C(=N)N)cc2)c1 [compound 83]	0.75 µM	–	–	–	> 30 µM
Cc1cccc(-c2cnc(NCCc3ccccc3)c(=O)n2CC(=O)NCc2ccc(C(=N)N)cc2)c1 [compound 84]	3.03 µM	–	–	–	> 30 µM
Cc1cccc(-c2cnc(NCCc3ccccc3)c(=O)n2CC(=O)NCc2ccc(C(=N)N)cc2)c1 [compound 85]	0.88 µM	–	42%@30	–	–
N=C(N)c1ccc(CNC(=O)Cn2c(-c3cccc(N)c3)c(Cl)nc(NCCc3ccccc3)c2=O)cc1 [compound 86]	0.07 µM	–	26%@30	–	–
N=C(N)c1ccc(CNC(=O)Cn2c(-c3cccc(N)c3)c(Cl)nc(NCCc3cccc(Cl)c3)c2=O)cc1 [compound 87]	0.07 µM	–	–	–	> 30 µM
N=C(N)c1ccc(CNC(=O)Cn2c(-c3cccc(N)c3)c(Cl)nc(NCc3ccccc3)c2=O)cc1 [compound 88]	0.1 µM	–	–	–	> 30 µM
Nc1cccc(-c2c(Cl)nc(NC3CCC3)c(=O)n2CC(=O)NCCc2ccccc2)c1 [compound 89]	–	–	5%@30	5%@30	–
N=C(N)c1ccc(CNC(=O)Cn2c(-c3cccc(N)c3)c(Cl)nc(NC3CCC3)c2=O)cc1 [compound 90]	0.02 µM	–	16%@30	–	–
N=C(N)NCCCC(NC(=O)Cn1c(-c2cccc(N)c2)c(Cl)nc(NCc2ccccc2)c1=O)C(=O)c1nccs1 (stereo not shown) [compound 91]	0.07 µM	–	–	–	7 µM
N=C(N)c1ccc(CNC(=O)Cn2c(-c3cccc(N)c3)cnc(NC3CCC3)c2=O)cc1 [compound 92]	0.053 µM	–	18%@30	–	–
CC(C)(C)Nc1nc(Cl)c(-c2cccc(N)c2)n(CC(=O)NCc2ccc(C(=N)N)cc2)c1=O [compound 93]	0.07 µM	–	–	–	> 30 µM
CN(C)Nc1nc(Cl)c(-c2cccc(N)c2)n(CC(=O)NCc2ccc(C(=N)N)cc2)c1=O [compound 94]	0.04 µM	–	–	–	> 30 µM
CNc1cccc(-c2c(Cl)nc(NC(C)C)c(=O)n2CC(=O)NCc2ccc(C(=N)N)cc2)c1 [compound 96]	0.26 µM	–	–	–	> 30 µM
Cc1c(N)cccc1-c1c(Cl)nc(NC(C)C)c(=O)n1CC(=O)NCc1ccc(C(=N)N)cc1 [compound 97]	0.04 µM	–	–	–	> 30 µM
Cc1c(N)cccc1-c1cnc(NC(C)C)c(=O)n1CC(=O)NCc1ccc(C(=N)N)cc1 [compound 98]	0.09 µM	–	10%@30	–	–
Nc1cccc(-c2c(Cl)nc(NC3CCC3)c(=O)n2CC(=O)NCc2ccccc2)c1 [compound 99]	–	–	8%@30	6%@30	–
